Here are results for 20 molecules from patent publication US20260347347A1, “2-AZA-AND 2-OXABICYCLO[2.1.1]HEXANE DERIVATIVES AS FACTOR XIIA ENZYME INHIBITORS” (KALVISTA PHARMACEUTICALS LIMITED, priority 2022, published 2026).

This experiment addresses T1, Human Factor XIIa (Homo sapiens, UniProt P00748).
T1 construct: purchased Enzyme Research Laboratories
T1 sequence (P00748 373-615 limits assumed): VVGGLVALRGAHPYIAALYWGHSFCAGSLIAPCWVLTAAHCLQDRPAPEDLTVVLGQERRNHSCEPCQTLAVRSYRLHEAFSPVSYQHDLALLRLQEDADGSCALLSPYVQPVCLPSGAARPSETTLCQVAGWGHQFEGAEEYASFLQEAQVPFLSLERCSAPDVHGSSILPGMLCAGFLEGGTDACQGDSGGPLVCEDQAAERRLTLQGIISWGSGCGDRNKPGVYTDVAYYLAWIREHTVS
T1 sequence (P00748 20-372 partner limits assumed): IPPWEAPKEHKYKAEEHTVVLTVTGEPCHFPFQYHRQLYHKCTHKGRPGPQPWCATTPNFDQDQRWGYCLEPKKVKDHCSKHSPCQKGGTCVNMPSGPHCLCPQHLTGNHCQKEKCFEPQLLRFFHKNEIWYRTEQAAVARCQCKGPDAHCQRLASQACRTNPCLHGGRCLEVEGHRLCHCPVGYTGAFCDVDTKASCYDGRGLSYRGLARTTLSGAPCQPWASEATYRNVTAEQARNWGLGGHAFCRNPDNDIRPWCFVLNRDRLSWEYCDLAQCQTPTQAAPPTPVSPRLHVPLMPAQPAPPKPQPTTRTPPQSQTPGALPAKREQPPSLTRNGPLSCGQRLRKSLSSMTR
Nature of the experiment: Determination of FXIIa inhibition (in vitro IC50 assay, fluorogenic substrate H-DPro-Phe-Arg-AFC). Type of experiment: biochemical. To be noted: human Factor XIIa, fluorogenic substrate H-DPro-Phe-Arg-AFC at Km concentration, 5 min, 25 °C; for IC50: class symbols, read-out: Human FXIIa IC50. The method, then: In vitro inhibition of Factor XIIa was determined using an IC50 assay based on standard literature methods (see e.g Baeriswyl et al., ACS Chem. Biol., 2015, 10 (8) 1861; Bouckaert et al., European Journal of Medicinal Chemistry 110 (2016) 181). Human Factor XIIa (Enzyme Research Laboratories) was incubated at 25 °C with the fluorogenic substrate H-DPro-Phe-Arg-AFC (Peptide Protein Science) and various concentrations of the test compound. Protease activity was measured by monitoring the accumulation of liberated fluorescence from the substrate over 5 min at 25 °C. The linear rate of fluorescence increase per minute was expressed as percentage (%) activity. The Km for the cleavage of the substrate by FXIIa was determined by standard transformation of the Michaelis-Menten equation. The compound inhibitor assays were performed at substrate Km concentration. IC50 values were calculated as the concentration of inhibitor giving 50% inhibition (IC50) of the uninhibited enzyme activity (100%).

Each structure is given as a SMILES string.

Usually IC50 stands for the concentration at which inhibition is half-maximal. Take `Cc1cc(OCC23CN(C(=O)NC4(c5ccccc5)CC4)C(CNc4ccc(N)nc4)(C2)C3)cc(=O)n1C` [Example 58, 1-(((6-aminopyridin-3-yl)amino)methyl)-4-(((1,6-dimethyl-2-oxo-1,2-dihydropyridin-4-yl)oxy)methyl)-N-(1-phenylcyclopropyl)-2-azabicyclo[2.1.1]hexane-2-carboxamide]: the IC50 is 10000 to 40000 nM.
Still for that read-out and setting: under `Cc1cc(OCC23CN(C(=O)CC45CCC(CC4)CC5)C(CNc4cccc5c(N)nccc45)(C2)C3)cc(=O)n1C` [Example 21, 4-((1-(((1-aminoisoquinolin-5-yl)amino)methyl)-2-(2-(bicyclo[2.2.2]octan-1-yl)acetyl)-2-azabicyclo[2.1.1]hexan-4-yl)methoxy)-1,6-dimethylpyridin-2(1H)-one] stands 10 to 100 nM; under `Cn1ccc(OCC23CN(C(=O)NC4CC5(CCC5)C4)C(CNc4cccc5c(N)nccc45)(C2)C3)cc1=O` [Example 75, 1-(((1-aminoisoquinolin-5-yl)amino)methyl)-4-(((1-methyl-2-oxo-1,2-dihydropyridin-4-yl)oxy)methyl)-N-(spiro[3.3]heptan-2-yl)-2-azabicyclo[2.1.1]hexane-2-carboxamide], 10 to 100 nM; under `Cn1ccc(OCC23CN(C(=O)Nc4ccc5c(c4)CCO5)C(CNc4cccc5c(N)nccc45)(C2)C3)cc1=O` [Example 38, 1-(((1-aminoisoquinolin-5-yl)amino)methyl)-N-(2,3-dihydrobenzofuran-5-yl)-4-(((1-methyl-2-oxo-1,2-dihydropyridin-4-yl)oxy)methyl)-2-azabicyclo[2.1.1]hexane-2-carboxamide], 1 to 10 nM.
Take `Cc1cc(OCC23CN(C(=O)NC4(c5ccccc5)CC4)C(CNc4cccnc4O)(C2)C3)cc(=O)n1C` [Example 71, 4-(((1,6-Dimethyl-2-oxo-1,2-dihydropyridin-4-yl)oxy)methyl)-1-(((2-hydroxypyridin-3-yl)amino)methyl)-N-(1-phenylcyclopropyl)-2-azabicyclo[2.1.1]hexane-2-carboxamide]: the IC50 fell in the range of 40000 to 100000 nM.
Still for that read-out and setting: under `CC(C(=O)N1CC2(COc3ccn(C)c(=O)c3)CC1(CNc1cccc3c(N)nccc13)C2)c1ccc2c(c1)CCO2` (centres unmarked) [Example 27, 4-((1-(((1-aminoisoquinolin-5-yl)amino)methyl)-2-(2-(2,3-dihydrobenzofuran-5-yl)propanoyl)-2-azabicyclo[2.1.1]hexan-4-yl)methoxy)-1-methylpyridin-2(1H)-one] stands 10 to 100 nM.
Turning to `Cc1cc(OCC23CN(C(=O)NC4(c5ccccc5)CC4)C(CNc4ccccc4C#N)(C2)C3)cc(=O)n1C` [Example 68, 1-(((2-cyanophenyl)amino)methyl)-4-(((1,6-dimethyl-2-oxo-1,2-dihydropyridin-4-yl)oxy)methyl)-N-(1-phenylcyclopropyl)-2-azabicyclo[2.1.1]hexane-2-carboxamide], the “Human FXIIa inhibition (compounds that did not achieve 50% inhibition)” value (class symbols H1/H2 for % inhibition at top concentration) is given as “H1 (>20% inhibition @ 40 μM)”.
Turning to `Cc1cc(OCC23CN(C(=O)N(C)C[C@H]4CCOC4)C(CNc4cccc5c(N)nccc45)(C2)C3)cc(=O)n1C` [Example 48, (R)-1-(((1-aminoisoquinolin-5-yl)amino)methyl)-4-(((1,6-dimethyl-2-oxo-1,2-dihydropyridin-4-yl)oxy)methyl)-N-methyl-N-((tetrahydrofuran-3-yl)methyl)-2-azabicyclo[2.1.1]hexane-2-carboxamide], the IC50 lay within 10 to 100 nM.
For `Nc1nccc2c(NCC34CC(c5ncc(-c6ccccc6)o5)(CO3)C4)cccc12` [Example 1, N5-((4-(5-Phenyloxazol-2-yl)-2-oxabicyclo[2.1.1]hexan-1-yl)methyl)isoquinoline-1,5-diamine], the IC50 lay within 40000 to 100000 nM.
Take `Cn1ccc(OCC23CN(C(=O)NC4(C)CCOCC4)C(CNc4cccc5c(N)nccc45)(C2)C3)cc1=O` [Example 78, 1-(((1-aminoisoquinolin-5-yl)amino)methyl)-4-(((1-methyl-2-oxo-1,2-dihydropyridin-4-yl)oxy)methyl)-N-(4-methyltetrahydro-2H-pyran-4-yl)-2-azabicyclo[2.1.1]hexane-2-carboxamide]: the IC50 was in the range of 10 to 100 nM.
Same read-out and setting: as for `Cc1cc(OCC23CN(C(=O)N4CCC5(CCCC5)C4)C(CNc4cccc5c(N)nccc45)(C2)C3)cc(=O)n1C` [Example 85, 4-((1-(((1-aminoisoquinolin-5-yl)amino)methyl)-2-(2-azaspiro[4.4]nonane-2-carbonyl)-2-azabicyclo[2.1.1]hexan-4-yl)methoxy)-1,6-dimethylpyridin-2(1H)-one], the figure is 10 to 100 nM; as for `Cc1cc(OCC23CN(C(=O)N4CC[C@@H](c5ccccc5)C4)C(CNc4cccc5c(N)nccc45)(C2)C3)cc(=O)n1C` [Example 45, (S)-4-((1-(((1-aminoisoquinolin-5-yl)amino)methyl)-2-(3-phenylpyrrolidine-1-carbonyl)-2-azabicyclo[2.1.1]hexan-4-yl)methoxy)-1,6-dimethylpyridin-2(1H)-one], 1 to 10 nM.
On the same count and under the same terms, as for `Cc1cc(OCC23CN(C(=O)CC4CCC(F)(F)CC4)C(CNc4cccc5c(N)nccc45)(C2)C3)cc(=O)n1C` [Example 23, 4-((1-(((1-aminoisoquinolin-5-yl)amino)methyl)-2-(2-(4,4-difluorocyclohexyl)acetyl)-2-azabicyclo[2.1.1]hexan-4-yl)methoxy)-1,6-dimethylpyridin-2(1H)-one], the figure is 10 to 100 nM; as for `Cc1cc(OCC23CN(c4ccc(C5CC5)nn4)C(CNc4cccc5c(N)nccc45)(C2)C3)cc(=O)n1C` [Example 95, 4-((1-(((1-Aminoisoquinolin-5-yl)amino)methyl)-2-(6-cyclopropylpyridazin-3-yl)-2-azabicyclo[2.1.1]hexan-4-yl)methoxy)-1,6-dimethylpyridin-2(1H)-one], 10 to 100 nM.
Same read-out and setting: as for `Cn1ccc(OCC23CN(C(N)=O)C(CNc4cccc5c(N)nccc45)(C2)C3)cc1=O` [Example 63, 1-(((1-Aminoisoquinolin-5-yl)amino)methyl)-4-(((1-methyl-2-oxo-1,2-dihydropyridin-4-yl)oxy)methyl)-2-azabicyclo[2.1.1]hexane-2-carboxamide], the figure is 10 to 100 nM; as for `Cn1ccc(OCC23CN(C(=S)Nc4ccccc4)C(CNc4cccc5c(N)nccc45)(C2)C3)cc1=O` [Example 91, 1-(((1-Aminoisoquinolin-5-yl)amino)methyl)-4-(((1-methyl-2-oxo-1,2-dihydropyridin-4-yl)oxy)methyl)-N-phenyl-2-azabicyclo[2.1.1]hexane-2-carbothioamide], 10 to 100 nM; as for `Cc1cc(OCC23CN(C(=O)Nc4ccc5c(c4)CCC5)C(CNc4cccc5c(N)nccc45)(C2)C3)cc(=O)n1C` [Example 65, 1-(((1-Aminoisoquinolin-5-yl)amino)methyl)-N-(2,3-dihydro-1H-inden-5-yl)-4-(((1,6-dimethyl-2-oxo-1,2-dihydropyridin-4-yl)oxy)methyl)-2-azabicyclo[2.1.1]hexane-2-carboxamide], 1 to 10 nM.
In the case of `CN(CC1CC1)C(=O)N1CC2(COc3ccn(C)c(=O)c3)CC1(CNc1cccc3c(N)nccc13)C2` [Example 53, 1-(((1-aminoisoquinolin-5-yl)amino)methyl)-N-(cyclopropylmethyl)-N-methyl-4-(((1-methyl-2-oxo-1,2-dihydropyridin-4-yl)oxy)methyl)-2-azabicyclo[2.1.1]hexane-2-carboxamide], the IC50 lay within 10 to 100 nM.
For the molecule `Cn1ccc(OCC23CN(C(=O)NC4C(C)(C)C4(C)C)C(CNc4cccc5c(N)nccc45)(C2)C3)cc1=O` [Example 80, 1-(((1-aminoisoquinolin-5-yl)amino)methyl)-4-(((1-methyl-2-oxo-1,2-dihydropyridin-4-yl)oxy)methyl)-N-(2,2,3,3-tetramethylcyclopropyl)-2-azabicyclo [2.1.1]hexane-2-carboxamide], the IC50 lay in the range of 10 to 100 nM.
Take `Cn1ccc(OCC23CN(C(=O)Nc4cc(F)cc5c4OCOC5)C(CNc4cccc5c(N)nccc45)(C2)C3)cc1=O` [Example 62, 1-(((1-aminoisoquinolin-5-yl)amino)methyl)-N-(6-fluoro-4H-benzo[d][1,3]dioxin-8-yl)-4-(((1-methyl-2-oxo-1,2-dihydropyridin-4-yl)oxy)methyl)-2-azabicyclo [2.1.1]hexane-2-carboxamide]: the IC50 was in the range of 1 to 10 nM.
